IC50 data for two compounds are collected here from article PMC3051820 (The Journal of Cell Biology, 2011).

The structures appear in SMILES notation.

For orientation: IC50 means the point on the concentration scale where inhibition reaches its midpoint. Higher therefore signals weaker potency in that assay.

The target of the experiment is mitochondrial complex I (Mus musculus, UniProt P03888+Q91WD5+Q9DC70). Put plainly: polarography: oxygen consumption in cells with complex I-specific substrates. It counts as cell-based.
Sequence of mitochondrial complex I (Q91VD9 24-727): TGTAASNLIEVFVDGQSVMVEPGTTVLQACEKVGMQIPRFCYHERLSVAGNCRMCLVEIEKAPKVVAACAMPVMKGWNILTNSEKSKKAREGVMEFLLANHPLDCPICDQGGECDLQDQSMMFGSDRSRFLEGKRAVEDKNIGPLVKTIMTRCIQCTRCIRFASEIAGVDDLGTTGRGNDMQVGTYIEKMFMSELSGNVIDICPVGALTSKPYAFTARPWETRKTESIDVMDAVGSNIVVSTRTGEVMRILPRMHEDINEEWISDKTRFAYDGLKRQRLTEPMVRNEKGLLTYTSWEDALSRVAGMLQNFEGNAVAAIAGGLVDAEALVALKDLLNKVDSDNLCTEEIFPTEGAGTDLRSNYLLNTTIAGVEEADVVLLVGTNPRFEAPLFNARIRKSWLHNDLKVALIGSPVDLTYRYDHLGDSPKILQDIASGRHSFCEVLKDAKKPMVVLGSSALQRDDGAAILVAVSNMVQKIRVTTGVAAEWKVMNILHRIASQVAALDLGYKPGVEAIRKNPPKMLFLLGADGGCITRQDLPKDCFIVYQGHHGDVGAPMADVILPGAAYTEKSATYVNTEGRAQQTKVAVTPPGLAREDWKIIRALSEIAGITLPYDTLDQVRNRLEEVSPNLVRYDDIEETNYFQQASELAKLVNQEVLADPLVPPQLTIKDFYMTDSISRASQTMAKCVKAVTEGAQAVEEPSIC
Sequence of mitochondrial complex I (Q91WD5 34-463): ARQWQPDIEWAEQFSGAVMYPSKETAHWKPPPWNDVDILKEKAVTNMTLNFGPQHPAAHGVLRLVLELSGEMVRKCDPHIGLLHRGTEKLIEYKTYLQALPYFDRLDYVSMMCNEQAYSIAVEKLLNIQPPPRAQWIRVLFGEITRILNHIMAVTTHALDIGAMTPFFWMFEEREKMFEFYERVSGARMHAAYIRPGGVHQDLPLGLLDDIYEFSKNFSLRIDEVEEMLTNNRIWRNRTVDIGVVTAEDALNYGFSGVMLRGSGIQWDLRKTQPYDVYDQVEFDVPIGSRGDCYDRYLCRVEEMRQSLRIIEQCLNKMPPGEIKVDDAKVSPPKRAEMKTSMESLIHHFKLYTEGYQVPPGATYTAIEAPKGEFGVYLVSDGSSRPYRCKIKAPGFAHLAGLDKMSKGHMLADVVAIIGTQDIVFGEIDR
Sequence of mitochondrial complex I (P03888 whole entry): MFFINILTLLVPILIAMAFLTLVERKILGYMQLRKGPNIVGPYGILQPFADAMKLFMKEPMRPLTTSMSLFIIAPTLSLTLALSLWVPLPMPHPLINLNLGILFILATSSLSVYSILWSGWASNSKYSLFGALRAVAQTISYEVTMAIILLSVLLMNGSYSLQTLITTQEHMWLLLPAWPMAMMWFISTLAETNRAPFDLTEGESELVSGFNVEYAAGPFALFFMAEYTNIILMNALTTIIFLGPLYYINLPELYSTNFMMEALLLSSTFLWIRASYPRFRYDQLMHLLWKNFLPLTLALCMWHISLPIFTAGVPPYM
Sequence of mitochondrial complex I (Q9DC70 36-224): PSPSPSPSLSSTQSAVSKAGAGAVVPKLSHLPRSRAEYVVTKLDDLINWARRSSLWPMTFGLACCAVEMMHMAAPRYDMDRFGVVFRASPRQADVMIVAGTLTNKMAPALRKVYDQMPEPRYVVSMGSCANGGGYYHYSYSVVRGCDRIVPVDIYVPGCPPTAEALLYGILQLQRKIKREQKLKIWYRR
Sequence of mitochondrial complex I (Q91YT0 21-464, further chain): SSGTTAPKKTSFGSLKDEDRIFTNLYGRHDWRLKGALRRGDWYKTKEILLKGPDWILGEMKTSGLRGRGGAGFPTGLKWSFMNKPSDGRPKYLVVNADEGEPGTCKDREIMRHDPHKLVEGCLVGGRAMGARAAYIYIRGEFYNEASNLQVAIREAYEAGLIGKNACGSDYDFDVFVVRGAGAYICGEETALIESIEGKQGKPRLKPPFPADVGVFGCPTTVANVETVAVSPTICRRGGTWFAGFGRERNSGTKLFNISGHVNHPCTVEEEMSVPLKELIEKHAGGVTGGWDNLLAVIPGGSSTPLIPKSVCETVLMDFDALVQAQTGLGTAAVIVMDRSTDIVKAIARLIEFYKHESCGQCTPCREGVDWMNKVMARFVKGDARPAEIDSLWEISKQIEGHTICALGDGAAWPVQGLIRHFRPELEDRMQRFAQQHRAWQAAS

On to `C=C(C)[C@H]1Cc2c(ccc3c2O[C@@H]2COc4cc(OC)c(OC)cc4[C@@H]2C3=O)O1` [rotenone], for which half-maximal inhibition (IC50) was put at 20 nM.

In turn, `C/C=C(\C)[C@H](O)[C@H](C)/C=C(C)/C=C/C/C(C)=C/Cc1nc(OC)c(OC)c(O)c1C` [piericidin A] yielded an IC50 of 10 nM.
